The test system of one data set is serum lipids. The settings on record: 0.2% in high cholesterol diet, cited from earlier work; for TG level lowering: not significant; for TC level lowering: significant.
Data set [1] deals with serum lipids and serum lipid hydroperoxide. Description: Pharmacological test method B for anti-hyperlipidemic activity (serum lipids, 4 weeks feeding). It counts as in vivo, male Wistar strain rats. Also noted: AI Diff.: unit not given here. The settings on record: for AI [(TC - HDL-C)/(HDL-C)] / HDL-C in serum / LPO in serum / PL in serum / TC in serum / TG in serum: 1% in hyperlipidemic diet, 4 weeks; for HDL-C rise compared with normal diet group: versus normal diet group; for change in vivo at 1 % in diet: Rattus norvegicus, po, 672 h; for change in vivo at 1 % in diet / AI Diff. / HDL-C Diff. / LPO Diff. / PL Diff. / TC % of diff. / TC Diff. / TG Diff.: versus control group. The procedure, abridged: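 Male Wistar rats (100±1 g, n=8; hyperlipidemic control n=16) were fed for 4 weeks a diet with 1% cholesterol and 0.5% cholic acid, with test compound admixed at 1%. After a 16 h fast, serum was taken from the abdominal aorta under pentobarbital. TC, HDL-C and PL were measured by enzymatic colorimetric kits at 500 nm; TG by acetylacetone kit; LPO also measured.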

Data set [2] in a line: Body weight of rats in method B. Also noted: species or system male Wistar strain rats. The settings on record: rat, in vivo. The procedure:
Male Wistar strain rats (100±1 g, each 8 rats were formed into a group except that the control group fed with a hyperlipidemic diet was formed of 16 rats) were used as test animals. A powdery diet (CE-2, supplied by Clea Japan, Inc.) was used as ordinary diet. The hyperlipidemic diet was prepared by fortifying the ordinary diet with cholesterol (1%) and cholic acid (0.5%). Each test compound (1%) for administration was admixed with the hyperlipidemic diet. Each two rats were kept in a cage and given the prescribed diet and water ad libitum. Thus the rats were fed for 4 weeks at a constant temperature of 23±1° C. and a constant R.H. of 55±5%. Finally, the rats were fasted from food except water for 16 hours (from 4 p.m. of the 28th test day to 8 a.m. of the 29th test day), and under anesthesia with pentbarbital sodium (tradename: Nembutal), blood was taken from each rat through the descending abdominal arota. Then, TC, HDL-C, TG, PL, and LPO in the serum were measured in the following manner.

Where two headings read alike, the source gives them in different places.

For `COc1cc(/C=C/C(=O)O)ccc1O` [ferulic acid, 4-hydroxy-3-methoxycinnamic acid], in the data set on serum lipids, the TG level lowering is on record as 18.7%, the TC level lowering is 10.8% and the PL level lowering result is listed as “scarcely observed”.

With `O=C(O)/C=C/c1ccc(O)cc1` [p-coumaric acid], in the data set with serum lipids, the TG level lowering was 19.8%, the TC level lowering is given as 9.4% and the PL level lowering result is recorded as “scarcely observed”.

`COc1cc(C(=O)O)ccc1O` [vanillic acid]: the “decrease of TC, TG, or PL level” value with serum lipids is on record as “no decrease”.

With `COc1cc(C(=O)OC2CCC34CC35CCC3(C)C(C(C)CCC=C(C)C)CCC3(C)C5CCC4C2(C)C)ccc1N` (stereo not shown) [Example 167, cycloartenyl ester of 4-amino-3-methoxy benzoic acid], in data set [1], the “AI [(TC - HDL-C)/(HDL-C)]” value came out at 2.405, the HDL-C in serum came out at 79.6 mg/dL, the LPO in serum is 2.28 nmol/mL and the PL in serum was 126.4 mg/dL. For the same compound, in data set [1], the TC in serum worked out at 271.0 mg/dL, the TG in serum came out at 67.1 mg/dL and the “HDL-C rise compared with normal diet group” value is reported as “remarkable rises”. Also, in data set [2], the “Body weight during feed period, 1st day” value is reported as 105 ± 3.4 g; the “Body weight during feed period, 8th day” value was 143 ± 10.4 g; the “Body weight during feed period, 15th day” value was found to be 191 ± 18.4 g; the “Body weight during feed period, 22nd day” value came to 241 ± 21.7 g. Also, in data set [2], the “Body weight during feed period, 28th day” value was found to be 272 ± 20.8 g and the “Body weight just before blood sampling, 29th day” value is on record as 259 ± 20.6 g.

`CCC(=Cc1ccc(O)c(OC)c1)C(=O)OC1CCC23CC24CCC2(C)C(C(C)CCC=C(C)C)CCC2(C)C4CCC3C1(C)C` (stereo not drawn) [Example 120, cycloartenyl ester of 4-hydroxy-3-methoxy-α-ethylcinnamic acid]: in data set [1], the “AI [(TC - HDL-C)/(HDL-C)]” value is 7.260, the HDL-C in serum was determined as 24.6 mg/dL, the LPO in serum turned out to be 2.06 nmol/mL and the PL in serum came to 105.3 mg/dL. For the same compound, in data set [1], the TC in serum is 203.2 mg/dL, the TG in serum is 53.0 mg/dL, the “AI Diff.” value was -14.5 and the “HDL-C Diff.” value is “+11.1 mg/dl”. Also, in data set [1], the “LPO Diff.” value is -0.76 nmol/mL, the “PL Diff.” value is -34.8 mg/dL, the “TC % of diff.” value is on record as -33.9% and the “TC Diff.” value was -104.1 mg/dL. In addition, the “TG Diff.” value in data set [1] is -3.5 mg/dL. Moreover, in data set [1] (read-out: AI % of diff.), the change in vivo at 1 % in diet was -66.6%. The change in vivo at 1 % in diet in data set [1] (read-out: HDL-C % of diff.) is 82.2%. Besides, the change in vivo at 1 % in diet in data set [1] (read-out: LPO % of diff.) is -27%. Further, the change in vivo at 1 % in diet in data set [1] (read-out: PL % of diff.) is -24.8%. The change in vivo at 1 % in diet in data set [1] (read-out: TG % of diff.) was -6.2%. For the same compound, in data set [2], the “Body weight during feed period, 1st day” value came out at 105 ± 3.2 g; the “Body weight during feed period, 8th day” value is 144 ± 9.4 g; the “Body weight during feed period, 15th day” value came out at 191 ± 18.2 g; the “Body weight during feed period, 22nd day” value is 242 ± 15.7 g. For the same compound, in data set [2], the “Body weight during feed period, 28th day” value is on record as 272 ± 20.1 g and the “Body weight just before blood sampling, 29th day” value came out at 258 ± 23.0 g.

In the case of `O=C(O)/C=C/c1ccc(O)c(O)c1` [caffeic acid], the “decrease of TC, TG, or PL level” value in the data set on serum lipids is “no decrease”.

Consider `COc1ccc(N)cc1C(=O)OC1CCC23CC24CCC2(C)C(C(C)CCC(C)=C(C)C)CCC2(C)C4CCC3C1(C)C` (stereo not shown) [Example 173, cyclobranyl ester of 5-amino-2-methoxybenzoic acid], for which, in data set [1], the “AI [(TC - HDL-C)/(HDL-C)]” value is on record as 3.671, the HDL-C in serum came to 58.4 mg/dL, the LPO in serum worked out at 2.23 nmol/mL and the PL in serum came out at 127.2 mg/dL. For the same compound, in data set [1], the TC in serum amounted to 272.8 mg/dL, the TG in serum was determined as 65.2 mg/dL and the “HDL-C rise compared with normal diet group” value is on record as “remarkable rises”. In data set [2], the “Body weight during feed period, 1st day” value was determined as 105 ± 3.6 g; the “Body weight during feed period, 8th day” value is listed as 142 ± 10.5 g; the “Body weight during feed period, 15th day” value is given as 190 ± 18.2 g; the “Body weight during feed period, 22nd day” value was 240 ± 23.5 g. For the same compound, in data set [2], the “Body weight during feed period, 28th day” value was found to be 271 ± 24.2 g and the “Body weight just before blood sampling, 29th day” value is listed as 258 ± 23.6 g.

Regarding `COc1cc(C=CC(=O)OC2CCC34CC35CCC3(C)C(C(C)CCC=C(C)C)CCC3(C)C5CCC4C2(C)C)ccc1N` (stereo not shown) [Example 177, Cycloartenyl ester of 4-amino-3-methoxycinnamic acid], in data set [1], the “AI [(TC - HDL-C)/(HDL-C)]” value was determined as 6.554, the HDL-C in serum is 32.5 mg/dL, the LPO in serum amounted to 2.29 nmol/mL and the PL in serum came to 125.8 mg/dL. Moreover, in data set [1], the TC in serum was 245.5 mg/dL and the TG in serum was 63.1 mg/dL. Besides, in data set [2], the “Body weight during feed period, 1st day” value was found to be 104 ± 3.9 g; the “Body weight during feed period, 8th day” value is recorded as 142 ± 9.6 g; the “Body weight during feed period, 15th day” value is given as 187 ± 12.8 g; the “Body weight during feed period, 22nd day” value is given as 238 ± 21.2 g. In data set [2], the “Body weight during feed period, 28th day” value was 267 ± 25.2 g and the “Body weight just before blood sampling, 29th day” value came out at 256 ± 27.1 g.

As for `C=C(CCC(C)C1CCC2(C)C3CCC4C(C)(C)C(OC(=O)C(C)=Cc5ccc(O)c(OC)c5)CCC45CC35CCC12C)C(C)C` (stereo not drawn) [Example 118, 24-methylenecycloartanyl ester of 4-hydroxy-3-methoxy-α-methylcinnamic acid], in data set [1], the “AI [(TC - HDL-C)/(HDL-C)]” value is 1.943, the HDL-C in serum was 47.4 mg/dL, the LPO in serum turned out to be 2.08 nmol/mL and the PL in serum came out at 98.3 mg/dL. Further, in data set [1], the TC in serum came to 139.5 mg/dL, the TG in serum turned out to be 51.4 mg/dL, the “AI Diff.” value is given as -19.82 and the “HDL-C Diff.” value is “+33.9 mg/dl”. Also, in data set [1], the “LPO Diff.” value was -0.74 nmol/mL, the “PL Diff.” value was -41.8 mg/dL, the “TC % of diff.” value is listed as -54.6% and the “TC Diff.” value was -168.2 mg/dL. In data set [1], the “TG Diff.” value is -5.1 mg/dL and the “HDL-C rise compared with normal diet group” value was “remarkable rises”. For the same compound, the change in vivo at 1 % in diet in data set [1] (read-out: AI % of diff.) is -91.9%. Also, the change in vivo at 1 % in diet in data set [1] (read-out: HDL-C % of diff.) was 251%. Moreover, in data set [1] (read-out: LPO % of diff.), the change in vivo at 1 % in diet is -26.2%. In data set [1] (read-out: PL % of diff.), the change in vivo at 1 % in diet is -29.8%. The change in vivo at 1 % in diet in data set [1] (read-out: TG % of diff.) is -9%. Further, in data set [2], the “Body weight during feed period, 1st day” value came to 106 ± 3.4 g; the “Body weight during feed period, 8th day” value is reported as 147 ± 9.2 g; the “Body weight during feed period, 15th day” value is 192 ± 17.8 g; the “Body weight during feed period, 22nd day” value came to 243 ± 15.4 g. In data set [2], the “Body weight during feed period, 28th day” value is on record as 274 ± 18.4 g and the “Body weight just before blood sampling, 29th day” value stood at 259 ± 20.4 g.

In the case of `O=C(O)C=Cc1ccccc1` [cinnamic acid], in the data set with serum lipids, the “decrease of TC, TG, or PL level” value was “no decrease”.

Turning to `CCOc1cc(C=C(C)C(=O)OC2CCC34CC35CCC3(C)C(C(C)CCC(C)=C(C)C)CCC3(C)C5CCC4C2(C)C)ccc1O` (stereo not drawn) [Example 140, cyclobranyl ester of 3-ethoxy-4-hydroxy-α-methylcinnamic acid], in data set [1], the “AI [(TC - HDL-C)/(HDL-C)]” value came out at 2.602, the HDL-C in serum was found to be 54.8 mg/dL, the LPO in serum stood at 2.02 nmol/mL and the PL in serum was determined as 98.0 mg/dL. In addition, in data set [1], the TC in serum was found to be 197.4 mg/dL, the TG in serum is 52.4 mg/dL, the “AI Diff.” value was -19.16 and the “HDL-C Diff.” value is “+41.3 mg/dl”. For the same compound, in data set [1], the “LPO Diff.” value is -0.80 nmol/mL, the “PL Diff.” value was -42.1 mg/dL, the “TC % of diff.” value is recorded as -35.8% and the “TC Diff.” value was -109.9 mg/dL. Also, in data set [1], the “TG Diff.” value is -4.1 mg/dL and the “HDL-C rise compared with normal diet group” value was “remarkable rises”. In data set [1] (read-out: AI % of diff.), the change in vivo at 1 % in diet was -88%. Also, in data set [1] (read-out: HDL-C % of diff.), the change in vivo at 1 % in diet amounted to 306%. Further, in data set [1] (read-out: LPO % of diff.), the change in vivo at 1 % in diet is -28.4%. For the same compound, in data set [1] (read-out: PL % of diff.), the change in vivo at 1 % in diet was -30%. For the same compound, the change in vivo at 1 % in diet in data set [1] (read-out: TG % of diff.) was -7.3%. In data set [2], the “Body weight during feed period, 1st day” value is 105 ± 3.6 g; the “Body weight during feed period, 8th day” value is recorded as 147 ± 9.5 g; the “Body weight during feed period, 15th day” value came to 194 ± 17.2 g; the “Body weight during feed period, 22nd day” value is on record as 246 ± 15.8 g. Also, in data set [2], the “Body weight during feed period, 28th day” value was 273 ± 18.7 g and the “Body weight just before blood sampling, 29th day” value was 261 ± 15.6 g.

These data come from patent US4748161A, “Triterpenyl esters of organic acids and hypolipidemic agents composed of them” (Amano Pharmaceutical Co., Ltd., priority 1984, dated 1988).
